The record followed here is patent US6699662B1, “Inhibitors of staphylococcus SarA protein function involved in the expression of staphylococcal virulence factors and the use thereof in treating staphylococcal infections” (priority 1999, dated 2004).

Data set [1] concerns SarA-DNA complex (SarA and ds A1/A2 DNA). Conditions: for effect of PNA added to the complexed SarA and radiolabeled ds A1/A2 DNA: PNA added to a mixture of SarA and ds A1/A2 DNA.
Protocol: The first tests of potential inhibitors are made using EMSA. Briefly, ^32P-labeled DNA fragments that correspond to the PNA or HP molecules are used as the targets. […] The concentration of SarA required to bind 50% of the DNA fragment is determined empirically. To determine the degree of inhibition, a mixture of SarA and ^32P-labeled DNA that gives 50% free DNA and 50% bound DNA (called 100% in this assay) is titrated with the PNA molecule. The concentration of PNA that reduces the SarA-DNA complex by 50% is the IC50 value. Using this simple, but effective testing procedure, the PNA or HP design is varied with regard to the sequence targeted and the length of PNA or HP molecules.
The samples were analyzed by standard EMSA and phosphorimaging.
The subject of data set [2] is A1/A2 oligonucleotide (SarA binding site of the agr locus). Description: EMSA of PNA binding to radiolabeled A1/A2 oligonucleotide. On the set-up: species or system Staphylococcus aureus. The source says: The present invention also is directed to a method of identifying inhibitors of SarA function involved in the expression of staphylococcal virulence genes comprising: a) contacting a candidate inhibitor with at least one SarA binding site of the agr locus in solution to allow the binding reaction to equilibrate for a sufficient period of time; and b) assessing the binding of said candidate inhibitor to said SarA binding site of the agr locus. (See FIG. 15 for an example of the results of this method.) The method further comprises the addition of SarA to the solution of step a) simultaneously with the inhibitor and the SarA binding site, and then an assessment of the binding affinity of the candidate inhibitor relative to the binding affinity of the SarA to the SarA binding site of the agr locus. Alternatively, the addition of SarA to the solution of step a) is sequentially with the inhibitor and the SarA binding site, and then the assessment of the binding affinity of said candidate inhibitor relative to the binding affinity of said SarA to the SarA binding site of the agr locus. (See FIG. 16 for an example of the results of this method showing the results with and without the addition of SarA.)
A prototype PNA inhibitor of SarA-agr binding is constructed and tested. […] The complexes were resolved by native gel electrophoresis and detected by phosphorimaging. […]

As for gly-TCCAATTTTTCTTAACTA-lys [18-mer], in data set [1] (10 nM dsDNA incubated with PNA (0.750 pM, 7.5, 75, 750 nM) overnight, then 10 nM SarA added, FIG. 16), the “competition with SarA for binding to A1/A2 DNA” value is recorded as “able to outcompete SarA for binding to the DNA”. The “effect of PNA added to the complexed SarA and radiolabeled ds A1/A2 DNA” value in data set [1] was “the complex changed from the SarA-DNA complex to the PNA-DNA complex”.
Take “gly-TTTCTTAACTA-lys (N-terminal glycine and C-terminal lysine attached, backbone not given here, further chemistry not given here; listed as Staphylococcus aureus) [PNA-1]”: the “fraction of PNA active in the binding assay” value in data set [2] (20 nM 32P-labeled A1/A2, FIG. 15) was “nearly all, if not all”. For the same substance, the “binding / affinity of PNA for the A1/A2 oligonucleotide” value in data set [2] (20 nM 32P-labeled A1/A2, varying PNA concentrations, FIG. 15) is “very high”. Besides, the “effect of PNA added to the complexed SarA and radiolabeled ds A1/A2 DNA” value in data set [1] is “did not change this complex”.
